Laboratory results from the supplement of paper PMC10307832.

Assays:
Assay in all cases: relative viability (nuclei count vs DMSO), 5 days (fraction); higher = more cells survive
COR-L 105 = test system: COR-L 105
Method in brief: (§1)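 Relative viability was taken as the ratio of nuclei in treated wells to nuclei in vehicle wells. Lung cancer cell lines in 1536-well plates received compounds by pin tool one day after seeding, either one drug alone or a fixed anchor-drug dose plus five library-drug doses (not always all listed) in √10 steps. Nuclei were counted on 4× images after 5 days of treatment, and values are medians of duplicate plates.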

HCC-366 = test system: HCC-366
Method in brief: as §1

PC-3 [JPC-3] = test system: PC-3 [JPC-3]
Method in brief: as §1

SW 900 = test system: SW 900
Method in brief: as §1

NCI-H1734 = test system: NCI-H1734
Method in brief: as §1

LK-2 = test system: LK-2
Method in brief: as §1

LOU-NH91 = test system: LOU-NH91
Method in brief: as §1

NCI-H1755 = test system: NCI-H1755
Method in brief: as §1

NCI-H23 = test system: NCI-H23
Method in brief: as §1

NCI-H1975 = test system: NCI-H1975
Method in brief: as §1

A-427 = test system: A-427
Method in brief: as §1

SK-MES-1 = test system: SK-MES-1
Method in brief: as §1

H3255 = test system: H3255
Method in brief: as §1

ChaGo-K-1 = test system: ChaGo-K-1
Method in brief: as §1

NCI-H441 = test system: NCI-H441
Method in brief: as §1

NCI-H596 = test system: NCI-H596
Method in brief: as §1

NCI-H1666 = test system: NCI-H1666
Method in brief: as §1

EMC-BAC-2 = test system: EMC-BAC-2
Method in brief: as §1

EKVX = test system: EKVX
Method in brief: as §1

NCI-H2170 = test system: NCI-H2170
Method in brief: as §1

NCI-H520 = test system: NCI-H520
Method in brief: as §1

SMILES: O=c1cc(-c2cccc3c2Sc2ccccc2S3)oc(N2CCOCC2)c1 + O=C(c1cc(Cc2n[nH]c(=O)c3ccccc23)ccc1F)N1CCN(C(=O)C2CC2)CC1 [Olaparib] (partner 8 µM)
- relative viability (COR-L 105; first compound 0.08 µM): 0.546
- relative viability (COR-L 105; first compound 0.253 µM): 0.665
- relative viability (COR-L 105; first compound 0.8 µM): 0.468
- relative viability (COR-L 105; first compound 2.53 µM): 0.682
- relative viability (COR-L 105; first compound 8 µM): 0.78
- relative viability (HCC-366; first compound 0.08 µM): 0.421
- relative viability (HCC-366; first compound 0.253 µM): 0.507
- relative viability (HCC-366; first compound 0.8 µM): 0.406
- relative viability (HCC-366; first compound 2.53 µM): 0.483
- relative viability (HCC-366; first compound 8 µM): 0.357
- relative viability (PC-3 [JPC-3]; first compound 0.08 µM): 1.13
- relative viability (PC-3 [JPC-3]; first compound 0.253 µM): 1.01
- relative viability (PC-3 [JPC-3]; first compound 0.8 µM): 0.95
- relative viability (PC-3 [JPC-3]; first compound 2.53 µM): 1.09
- relative viability (PC-3 [JPC-3]; first compound 8 µM): 1.19
- relative viability (SW 900; first compound 0.253 µM): 0.999
- relative viability (SW 900; first compound 0.8 µM): 0.824
- relative viability (SW 900; first compound 2.53 µM): 0.702
- relative viability (SW 900; first compound 8 µM): 0.773
- relative viability (NCI-H1734; first compound 0.08 µM): 0.628
- relative viability (NCI-H1734; first compound 0.253 µM): 0.659
- relative viability (NCI-H1734; first compound 0.8 µM): 0.713
- relative viability (NCI-H1734; first compound 8 µM): 0.647
- relative viability (LK-2; first compound 0.08 µM): 0.833
- relative viability (LK-2; first compound 0.253 µM): 0.793
- relative viability (LK-2; first compound 0.8 µM): 0.79
- relative viability (LK-2; first compound 2.53 µM): 0.62
- relative viability (LK-2; first compound 8 µM): 0.749
- relative viability (LOU-NH91; first compound 0.08 µM): 0.875
- relative viability (LOU-NH91; first compound 0.253 µM): 0.945
- relative viability (LOU-NH91; first compound 0.8 µM): 0.866
- relative viability (LOU-NH91; first compound 2.53 µM): 0.863
- relative viability (LOU-NH91; first compound 8 µM): 0.917
- relative viability (NCI-H1755; first compound 0.08 µM): 0.843
- relative viability (NCI-H1755; first compound 0.253 µM): 0.998
- relative viability (NCI-H1755; first compound 0.8 µM): 0.846
- relative viability (NCI-H1755; first compound 2.53 µM): 0.884
- relative viability (NCI-H1755; first compound 8 µM): 0.91
- relative viability (NCI-H23; first compound 0.08 µM): 0.313
- relative viability (NCI-H23; first compound 0.253 µM): 0.309
- relative viability (NCI-H23; first compound 0.8 µM): 0.24
- relative viability (NCI-H23; first compound 2.53 µM): 0.269
- relative viability (NCI-H23; first compound 8 µM): 0.268
- relative viability (NCI-H1975; first compound 0.08 µM): 0.831
- relative viability (NCI-H1975; first compound 0.253 µM): 0.94
- relative viability (NCI-H1975; first compound 0.8 µM): 0.737
- relative viability (NCI-H1975; first compound 2.53 µM): 0.666
- relative viability (NCI-H1975; first compound 8 µM): 0.598
- relative viability (A-427; first compound 0.08 µM): 0.7
- relative viability (A-427; first compound 0.253 µM): 0.776
- relative viability (A-427; first compound 0.8 µM): 0.637
- relative viability (A-427; first compound 2.53 µM): 0.684
- relative viability (A-427; first compound 8 µM): 0.777
- relative viability (SK-MES-1; first compound 0.08 µM): 0.756
- relative viability (SK-MES-1; first compound 0.253 µM): 0.892
- relative viability (SK-MES-1; first compound 0.8 µM): 0.708
- relative viability (SK-MES-1; first compound 2.53 µM): 0.705
- relative viability (SK-MES-1; first compound 8 µM): 0.467
- relative viability (H3255; first compound 0.08 µM): 0.592
- relative viability (H3255; first compound 0.253 µM): 0.586
- relative viability (H3255; first compound 0.8 µM): 0.571
- relative viability (H3255; first compound 2.53 µM): 0.525
- relative viability (H3255; first compound 8 µM): 0.594
- relative viability (ChaGo-K-1; first compound 0.08 µM): 0.503
- relative viability (ChaGo-K-1; first compound 0.253 µM): 0.494
- relative viability (ChaGo-K-1; first compound 0.8 µM): 0.415
- relative viability (ChaGo-K-1; first compound 2.53 µM): 0.466
- relative viability (ChaGo-K-1; first compound 8 µM): 0.411
- relative viability (NCI-H441; first compound 0.08 µM): 0.603
- relative viability (NCI-H441; first compound 0.253 µM): 0.708
- relative viability (NCI-H441; first compound 0.8 µM): 0.518
- relative viability (NCI-H441; first compound 2.53 µM): 0.461
- relative viability (NCI-H441; first compound 8 µM): 0.432
- relative viability (NCI-H596; first compound 0.08 µM): 0.664
- relative viability (NCI-H596; first compound 0.253 µM): 0.631
- relative viability (NCI-H596; first compound 0.8 µM): 0.504
- relative viability (NCI-H596; first compound 2.53 µM): 0.587
- relative viability (NCI-H596; first compound 8 µM): 0.585
- relative viability (NCI-H1666; first compound 0.08 µM): 0.691
- relative viability (NCI-H1666; first compound 0.253 µM): 0.733
- relative viability (NCI-H1666; first compound 0.8 µM): 0.681
- relative viability (NCI-H1666; first compound 2.53 µM): 0.691
- relative viability (NCI-H1666; first compound 8 µM): 0.671
- relative viability (EMC-BAC-2; first compound 0.08 µM): 0.523
- relative viability (EMC-BAC-2; first compound 0.253 µM): 0.568
- relative viability (EMC-BAC-2; first compound 0.8 µM): 0.518
- relative viability (EMC-BAC-2; first compound 2.53 µM): 0.571
- relative viability (EMC-BAC-2; first compound 8 µM): 0.514
- relative viability (EKVX; first compound 0.08 µM): 0.829
- relative viability (EKVX; first compound 0.253 µM): 0.852
- relative viability (EKVX; first compound 0.8 µM): 0.623
- relative viability (EKVX; first compound 2.53 µM): 0.803
- relative viability (EKVX; first compound 8 µM): 1.05
- relative viability (NCI-H2170; first compound 0.08 µM): 0.585
- relative viability (NCI-H2170; first compound 0.253 µM): 0.699
- relative viability (NCI-H2170; first compound 0.8 µM): 0.689
- relative viability (NCI-H2170; first compound 2.53 µM): 0.641
- relative viability (NCI-H2170; first compound 8 µM): 0.617
- relative viability (NCI-H520; first compound 0.08 µM): 0.391
- relative viability (NCI-H520; first compound 0.253 µM): 0.321
- relative viability (NCI-H520; first compound 0.8 µM): 0.439
- relative viability (NCI-H520; first compound 2.53 µM): 0.322
- relative viability (NCI-H520; first compound 8 µM): 0.339
